Experimental data published in patent US20070253957A1, “Substituted N-Aryl-1H-Pyrazolo[3,4-B]Quinolin-4-Amines and Analogs as Activators of Caspases and Inducers of Apoptosis” (Cytovia, Inc., priority 2004, published 2007).
Where two headings read alike, the source gives them in different places.

How the values were obtained:
T-47D [1] = experiment: Caspase cascade activation assay (N-(Ac-DEVD)-N'-ethoxycarbonyl-R110 fluorogenic substrate) in T-47D cells; format: cell-based, Human; settings: 24 h incubation; for Caspase Activity Ratio: ratio of net RFU (T=3 h) to that of control samples, 0.16 to 10 μM final; for EC50: sigmoidal dose-response calculation, read-out: Caspase Potency EC50
Experimental: Human breast cancer cell lines T-47D was grown according to media component mixtures designated by American Type Culture Collection+10% FCS (mvitrogen Corporation), in a 5% CO2-95% humidity incubator at 37° C. T-47D and ZR-75-1 cells were maintained at a cell density between 30 and 80% confluency and for HL-60 at a cell density of 0.1 to 0.6×10^6 cells/mL. Cells were harvested at 600×g and resuspended at 0.65×10^6 cells/mL into appropriate media+10% FCS. An aliquot of 45 μL of cells was added to a well of a 96-well microtiter plate containing 5 μL of a 10% DMSO in RPMI-1640 media solution containing 1.6 to 100 μM of 1,3-dimethyl-N-(4-methoxyphenyl)-1H-pyrazolo[3,4-b]quinolin-4-amine or other test compound (0.16 to 10 μM final). An aliquot of 45 μL of cells was added to a well of a 96-well microtiter plate containing 5 μL of a 10% DMSO in RPMI-1640 media solution without test compound as the control sample. The samples were mixed by agitation and then incubated at 37° C. for 24 h in a 5% CO2-95% humidity incubator. After incubation, the samples were removed from the incubator and 50 μL of a solution containing 20 μM of N-(Ac-DEVD)-N′-ethoxycarbonyl-R110 fluorogenic substrate (SEQ ID NO:1) (Cytovia, Inc.; U.S. Pat. No. 6,335,429), 20% sucrose (Sigma), 20 mM DTT (Sigma), 200 mM NaCl (Sigma), 40 mM Na PIPES buffer pH 7.2 (Sigma), and 500 μg/mL lysolecithin (Calbiochem) was added. The samples were mixed by agitation and incubated at room temperature. Using a fluorescent plate reader (Model 1420 Wallac Instruments), an initial reading (T=0) was made about 1-2 min after addition of the substrate solution, employing excitation at 485 nm and emission at 530 nm, to determine the background fluorescence of the control sample. After about 3 h of incubation, the samples were read for fluorescence as above (T=3 h).
The Relative Fluorescence Unit values (RFU) were used to calculate the sample readings as follows: RFU(T=3h)−Control RFU(T=0)=Net RFU(T=3h)
The activity of caspase cascade activation was determined by the ratio of the net RFU value for 1,3-dimethyl-N-(4-methoxyphenyl)-1H-pyrazolo[3,4-b]quinolin-4-amine to that of control samples. The EC50 (nM) was determined by a sigmoidal dose-response calculation (Prism 2.0, GraphPad Software Inc.).

T-47D [2] = experiment: Inhibition of cell proliferation (GI50), CellTiter 96 AQUEOUS One Solution, T-47D cells; format: cell-based, Human; settings: 48 h incubation, dose for 50% inhibition of cell proliferation
Experimental: (§1) T-47D and MX1 cells were grown and harvested as in Example 49. An aliquot of 90 μL of cells (2.2×10^4 cells/mL) was added to a well of a 96-well micrQtiter plate containing 10 μl of a 10% DMSO in RPMI-1640 media solution containing […] to 100 μM of 1,3-dimethyl-N-(4-methoxyphenyl)-1H-pyrazolo[3,4-b]quinolin-4-amine (0.1 nM to 10 μM final) or other test compound. An aliquot of 90 μL of cells was added to a well of a 96-well microtiter plate containing 10 μL of a 10% DMSO in RPMI-1640 media solution without compound as the control sample for maximal cell proliferation (AMax). The samples were mixed by agitation and then incubated at 37° C. for 48 h in a 5% CO2-95% humidity incubator. After incubation, the samples were removed from the incubator and 20 μL of CellTiter 96 AQUEOUS One Solution Cell Proliferation™ reagent (Promega) was added. The samples were mixed by agitation and incubated at 37° C. for 2-4 h in a 5% CO2-95% humidity incubator. Using an absorbance plate reader (Model 1420 Wallac Instruments), an initial reading (T=0) was made about 1-2 min after addition of the solution, employing absorbance at 490 nm. This determines the possible background absorbance of the test compounds. No absorbance for 1,3-dimethyl-N-(4-methoxyphenyl)-1H-pyrazolo[3,4-b]quinolin-4-amine was found at 490 nm. After the 2-4 h incubation, the samples were read for absorbance as above (ATest).
(§2) Baseline for GI50 (dose for 50% inhibition of cell proliferation) of initial cell numbers were determined by adding an aliquot of 90 μL of cells or 90 μL of media, respectively, to wells of a 96-well microtiter plate containing 10 μL of a 10% DMSO in RPMI-1640 media solution. The samples were mixed by agitation and then incubated at 37° C. for 0.5 h in a 5% CO2-95% humidity incubator. After incubation, the samples were removed from the incubator and 20 μL of CellTiter 96 AQUEOUS One Solution Cell Proliferation™ reagent (Promega) was added. The samples were mixed by agitation and incubated at 37° C. for 2-4 h in a 5% CO2-95% humidity incubator. Absorbance was read as above, (Astart) defining absorbance for initial cell number used as baseline in GI50 determinations.
(§3) GI50 (dose for 50% inhibition of cell proliferation) is the concentration where [(ATest−Astart)/(AMax−AStart)]=0.5.

MX1 = experiment: Inhibition of cell proliferation (GI50), CellTiter 96 AQUEOUS One Solution, MX1 cells; format: cell-based; settings: 48 h incubation, dose for 50% inhibition of cell proliferation
Experimental: as §1, §2, §3

EC50 (T-47D [1]; Homo sapiens, T47D) | GI50 (T-47D [2]; Homo sapiens, T47D) | EC50 (T-47D [1]) | GI50 (T-47D [2]) | Compound | Caspase Activity Ratio (T-47D [1]) | GI50 (MX1; Homo sapiens) | GI50 (MX1)
793 nM | 809 nM | – | – | COc1ccc(Nc2c3ccccc3nc3c2c(C)nn3C)cc1 [Compound A, 1,3-Dimethyl-N-(4-methoxyphenyl)-1H-pyrazolo[3,4-b]quinolin-4-amine] | 3.8 | 800 nM | –
333 nM | 519 nM | – | – | COC(=O)c1ccc(Nc2c3ccccc3nc3c2c(C)nn3C)cc1 [Example 4, 1,3-Dimethyl-N-(4-(methoxycarbonyl)phenyl)-1H-pyrazolo[3,4-b]quinolin-4-amine] | 8.6 | 500 nM | –
444 nM | 300 nM | – | – | CC(=O)c1ccc(Nc2c3c(nc4ccccc24)CCC3)cc1 [Example 11, N-(4-Acetylphenyl)-2,3-dihydro-1H-cyclopenta[b]quinolin-9-amine] | 9.4 | 300 nM | –
43 nM | 30 nM | – | – | CCC(=O)c1ccc(Nc2c3ccccc3nc3c2c(C)nn3C)cc1 [Example 23, 1,3-Dimethyl-N-(4-propionylphenyl)-1H-pyrazolo[3,4-b]quinolin-4-amine] | 4.2 | 30 nM | –
> 10000 nM | > 10000 nM | – | – | CC(=O)c1ccc(Nc2c3cc(C)ccc3nc3c2c(C)nn3C)cc1 [Example 26, N-(4-Acetylphenyl)-1,3,6-trimethyl-1H-pyrazolo[3,4-b]quinolin-4-amine] | 1.1 | > 10000 nM | –
– | – | 663 nM | 399 nM | CC(=O)c1ccc(Nc2c3cccc(C)c3nc3c2c(C)nn3C)cc1 [Example 29, N-(4-Acetylphenyl)-1,3,8-trimethyl-1H-pyrazolo[3,4-b]quinolin-4-amme] | 4.2 | – | 600 nM
2850 nM | 4560 nM | – | – | COC(=O)c1ccc(N(C)c2c3ccccc3nc3c2c(C)nn3C)cc1 [Example 30, 1,3-Dimethyl-N-methyl-N-(4-methoxycarbonylphenyl)-1H-pyrazolo[3,4-b]quinolin-4-amine] | 6.6 | 4000 nM | –
4100 nM | 6100 nM | – | – | COc1ccc(N(C)c2c3ccccc3nc3c2c(C)nn3C)cc1 [Example 31, 1,3-Dimethyl-N-methyl-N-(4-methoxyphenyl)-1H-pyrazolo[3,4-b]quinolin-4-amine] | 9.7 | > 10000 nM | –
667 nM | 500 nM | – | – | CSc1ccc(Nc2c3ccccc3nc3c2c(C)nn3C)cc1 [Example 33, 1,3-Dimethyl-N-(4-methylthiophenyl)-1H-pyrazolo[3,4-b]quinolin-4-amine] | 3.6 | 500 nM | –
435 nM | 546 nM | – | – | CCC(=O)c1ccc(Nc2c3cccc([N+](=O)[O-])c3nc3c2c(C)nn3C)cc1 [Example 37, 1,3-Dimethyl-8-nitro-N-(4-propionylphenyl)-1H-pyrazolo[3,4-b]quinolin-4-amine] | 4.2 | 900 nM | –
706 nM | 803 nM | – | – | CCC(=O)c1ccc(Nc2c3cccc(N)c3nc3c2c(C)nn3C)cc1 [Example 38, 8-Amino-1,3-dimethyl-N-(4-propionylphenyl)-1H-pyrazolo[3,4-b]quinolin-4-amine] | 5.1 | 2210 nM | –
173 nM | 100 nM | – | – | CCC(=O)c1ccc(Nc2c3ccccc3nc3c2c(C)nn3CC)cc1 [Example 42, 1-Ethyl-3-methyl-N-(4-propionylphenyl)-1H-pyrazolo[3,4-b]quinolin-4-amine] | 6.7 | 100 nM | –
> 10000 nM | – | – | – | Cc1nn(C)c2nc3ccccc3c(Nc3ccc(N=[N+]=[N-])cc3)c12 [Example 46, N-(4-Azidophenyl)-1,3-dimethyl-1H-pyrazolo[3,4-b]quinolin-4-amine] | 1.1 | – | –
> 10000 nM | – | – | – | Cc1nn(C)c2nc3ccccc3c(Nc3ccc(C(=O)O)cc3)c12 [Example 47, N-(4-Carboxylphenyl)-1,3-dimethyl-1H-pyrazolo[3,4-b]quinolin-4-amine] | 1.1 | – | –
> 10000 nM | – | – | – | Cc1nn(C)c2nc3ccccc3c(Nc3ccc(C(=O)C(F)(F)F)cc3)c12 [Example 48, 1,3-Dimethyl-N-(4-(2,2,2-trifluoroacetyl)phenyl)-1H-pyrazolo[3,4-b]quinolin-4-amine] | 1.1 | – | –
2960 nM | – | – | – | CCc1ccccc1Nc1c2c(nc3ccccc13)CCC2 [N-(2-Ethylphenyl)-2,3-dihydro-1H-cyclopenta[b]quinolin-9-amine] | 6.5 | – | –
2450 nM | – | – | – | COc1ccccc1Nc1c2c(nc3ccccc13)CCC2 [N-(2-Methoxyphenyl)-2,3-dihydro-1H-cyclopenta[b]quinolin-9-amine] | 7.5 | – | –
3040 nM | – | – | – | COC(=O)c1cccc(Nc2c3c(nc4ccccc24)CCC3)c1 [N-(3-(Methoxycarbonyl)phenyl)-2,3-dihydro-1H-cyclopenta[b]quinolin-9-amine] | 5.6 | – | –
304 nM | – | – | – | CC(=O)c1cccc(Nc2c3c(nc4ccccc24)CCC3)c1 [N-(3-Acetylphenyl)-2,3-dihydro-1H-cyclopenta[b]quinolin-9-amine] | 8.8 | – | –
5530 nM | – | – | – | Cc1ccc2nc3c(c(Nc4cccc(O)c4)c2c1)CCC3 [N-(3-Hydroxyphenyl)-7-methyl-2,3-dihydro-1H-cyclopenta[b]quinolin-9-amine] | 3.7 | – | –
1180 nM | – | – | – | CCOC(=O)c1ccc(Nc2c3c(nc4ccccc24)CCC3)cc1 [N-(4-(Ethoxycarbonyl)phenyl)-2,3-dihydro-1H-cyclopenta[b]quinolin-9-amine] | 9.5 | – | –
340 nM | – | – | – | COC(=O)c1ccc(Nc2c3c(nc4ccccc24)CCC3)cc1 [N-(4-(Methoxycarbonyl)phenyl)-2,3-dihydro-1H-cyclopenta[b]quinolin-9-amine] | 4.8 | – | –
314 nM | – | – | – | CC(=O)c1ccc(Nc2c3ccccc3nc3c2c(C)nn3C)cc1 [N-(4-Acetylphenyl)-1,3-dimethyl-1H-pyrazolo[3,4-b]quinolin-4-amine] | 4.2 | – | –
